From ChEMBL document CHEMBL3046130, “Apteniols AF, oxyneolignans from the leaves of Aptenia cordifolia” (Tetrahedron, 2005)
The source made the active and inactive calls. The rule behind the calls is not given here.

Experiments:
[1] = tested on: Lactuca sativa; assay: Phytotoxicity against Lactuca sativa (lettuce) assessed as reduction of seed germination at 10^-5 M measured daily for 5 days relative to control; format: functional; design: scale not given: the % may be the effect or the level left
[2] = tested on: Lactuca sativa; assay: Phytotoxicity against Lactuca sativa (lettuce) assessed as reduction of root elongation at 10^-4 M measured daily for 5 days relative to control; format: functional; design: scale not given: the % may be the effect or the level left
[3] = tested on: Lactuca sativa; assay: Phytotoxicity against Lactuca sativa (lettuce) assessed as reduction of seed germination measured daily for 5 days relative to control; format: functional, organism-based
[4] = tested on: Lactuca sativa; assay: Stimulation of root elongation in Lactuca sativa (lettuce) at 10^-7 M measured daily for 5 days relative to control; format: organism-based; details: in vivo, 120 h, 0.1 µM
[5] = tested on: Lactuca sativa; assay: Phytotoxicity against Lactuca sativa (lettuce) assessed as reduction of shoot elongation at 10^-7 M measured daily for 5 days relative to control; format: functional, organism-based

With COc1cc(CCC(=O)O)cc(OC)c1Oc1c(OC)cc(CCC(=O)O)cc1OC [APTENIOL E] the Activity [1] was 25%, the Activity [2] was 20% and the Activity [3] was “Dose-dependent effect”. The Activity [4] was 20%.

COc1cc(CCC(=O)O)ccc1Oc1ccc(CCC(=O)O)cc1 [APTENIOL B] was tested, and the Activity [1] was 25%, the Activity [2] was 20% and the Activity [3] was “Dose-dependent effect”. The Activity [4] was 20%.

COC(=O)CCc1ccc(Oc2ccc(CCC(=O)OC)cc2OC)cc1 [APTENIOL C] was tested, and the Activity [1] was 25%, the Activity [2] was “inactive” and the Activity [5] was “inactive”. The Activity [3] was “Dose-dependent effect”.

O=C(O)CCc1ccc(Oc2ccc(CCC(=O)O)cc2)cc1 [APTENIOL A] was tested, and the Activity [1] was 25%, the Activity [2] was 40% and the Activity [5] was “inactive”. The Activity [3] was “Dose-dependent effect”.

With COc1cc(CCC(=O)O)ccc1Oc1c(OC)cc(CCC(=O)O)cc1OC [APTENIOL D] the Activity [1] was 25%, the Activity [2] was 20% and the Activity [3] was “Dose-dependent effect”.

COc1cc(CCC(=O)O)ccc1Oc1ccccc1CCC(=O)O [APTENIOL F] was tested, and the Activity [1] was 25%, the Activity [2] was 20% and the Activity [5] was “inactive”. The Activity [3] was “Dose-dependent effect”.
